ChEMBL document CHEMBL4619773, “Chemoreactive-Inspired Discovery of Influenza A Virus Dual Inhibitor to Block Hemagglutinin-Mediated Adsorption and Membrane Fusion” (J Med Chem, 2020)

Tested on: Influenza A virus
Format: functional, organism-based

Compound: CC(=O)c1cc(C)c(O)c(Cc2[nH]c3ccccc3c2Cc2c(O)c(C)cc(C(C)=O)c2O)c1O
- IC50: > 42 µg/mL
